Assays:
[1] = target: T1, Protein farnesyltransferase (Homo sapiens, UniProt P49354+P49356); experiment: Inhibition of farnesyltransferase activity; assay type: protein-complex assay
[2] = target: T1, Protein farnesyltransferase; experiment: Inhibition of farnesyltransferase activity at 0.2 uM; assay type: protein-complex assay
[3] = AUC in rat at 10 mg/kg, po; assay type: ADME, organism-based; parameters: dose 10 mg/kg, route oral; settings: plasma
[4] = target: T1, Protein farnesyltransferase; experiment: Inhibition of farnesyltransferase activity in COS7 cells transfected with Ras gene in soft agar proliferation; assay type: functional, cell-based, Chlorocebus aethiops, COS-7

IC50 [1] [nM]	inhibition [2] [%]	AUC [3] [µM·h]	IC50 [4] [nM]	Compound
76				CS(=O)(=O)N1CCC([C@@H]2c3ccc(Cl)cc3C=C(N3CCNCC3)c3cccnc32)CC1
150				CS(=O)(=O)N1CCC([C@H]2c3ccc(Cl)cc3C=C(N3CCNCC3)c3cccnc32)CC1
	29			CS(=O)(=O)N1CCC([C@H]2c3ccc(Cl)cc3C(N3CCNCC3)=Cc3cccnc32)CC1
7		4	72	CS(=O)(=O)N1CCC([C@@H]2c3ccc(Cl)cc3C(N3CCNCC3)=Cc3cccnc32)CC1
